Results taken from patent publication US6686475B2, “Compounds” (Beecham Group p.l.c., priority 1988, dated 2004).

Tests used:
[1] = system: C57bl/6 obese (ob/ob) mice; experiment: Obese Mice, Oral Glucose Tolerance Test; assay type: in vivo; settings: 8 days on diet, oral glucose load 3 g/kg, vs control groups; for inhibition in vivo at 100 µmol/kg: level in diet 100 μmol kg^-1 of diet; for inhibition in vivo at 300 µmol/kg: level in diet 300 μmol kg^-1 of diet; for inhibition in vivo at 30 µmol/kg: level in diet 30 μmol kg^-1 of diet
Experimental: Obese Mice, Oral Glucose Tolerance Test
C57bl/6 obese (ob/ob) mice were fed on powdered oxoid diet. After at least one week, the mice continued on a powdered oxoid diet or were fed powdered oxoid diet containing the test compound. After 8 days on the supplemented diet all of the mice were fasted for 5 hours prior to receiving an oral load of glucose (3 g/kg). Blood samples for glucose analysis were taken 0, 45, 90 and 135 minutes after glucose administration and the results appear below as the percentage reduction in area under the blood glucose curve where test compound treated groups are compared with the control groups. 7 mice were used for each treatment.

[2] = system: spontaneously hypertensive rats; experiment: Anti-Hypertensive Activity, blood pressure in spontaneously hypertensive rats; assay type: in vivo
Experimental: Anti-Hypertensive Activity
Eight month old female, spontaneously hypertensive rats were given test compound once each day for 15 days. Prior to the experiment and on days 8 and 15, the rats were fasted overnight from 5.00 pm and blood pressure was recorded the following morning, immediately prior to dosing and again 2 h later. Food was returned after the 2 h blood pressure reading.
The results below were obtained using the compound of Example 3 as the test compound.

[3] = Mus musculus, 192 h, read-out: % REDUCTION IN AREA UNDER BLOOD GLUCOSE CURVE

Row | melting point | Compound | inhibition in vivo at 100 µmol/kg [1, 3] | further results
1 | – | 5-(4-[2-(N-Methyl-N-(2-benzoxazolyl)amino)ethoxy]benzyl)-2,4-thiazolidinedione hemihydrate [Example 3] | – | % REDUCTION IN AREA UNDER BLOOD GLUCOSE CURVE ([1]; level in diet 10 μmol kg^-1 of diet): 39%; Blood pressure ([2]; 10 μmole/kg once each day, Day 0 (prior to the experiment), 0 hours): 210 ± 13 mm Hg; Blood pressure ([2]; 10 μmole/kg once each day, Day 8, 0 hours (immediately prior to dosing)): 191 ± 6 mm Hg; Blood pressure ([2]; 10 μmole/kg once each day, Day 8, 2 hours after dosing): 185 ± 12 mm Hg; Blood pressure ([2]; 10 μmole/kg once each day, Day 15, 0 hours (immediately prior to dosing)): 198 ± 17 mm Hg; Blood pressure ([2]; 10 μmole/kg once each day, Day 15, 2 hours after dosing): 185 ± 5 mm Hg; Blood pressure ([2]; 30 μmole/kg once each day, Day 0 (prior to the experiment), 0 hours): 210 ± 13 mm Hg; Blood pressure ([2]; 30 μmole/kg once each day, Day 8, 0 hours (immediately prior to dosing)): 181 ± 11 mm Hg; Blood pressure ([2]; 30 μmole/kg once each day, Day 8, 2 hours after dosing): 174 ± 15 mm Hg; Blood pressure ([2]; 30 μmole/kg once each day, Day 15, 0 hours (immediately prior to dosing)): 178 ± 18 mm Hg; Blood pressure ([2]; 30 μmole/kg once each day, Day 15, 2 hours after dosing): 170 ± 13 mm Hg
2 | – | CN(CCOc1ccc(CC2SC(=O)NC2=O)cc1)c1nc2ccccc2s1 (centres unmarked) [Example 1, 5-(4-[2-(N-Methyl-N-(2-benzothiazolyl)amino)ethoxy]benzyl)-2,4-thiazolidinedione] | 51% | –
3 | – | CN(CCOc1ccc(/C=C2\SC(=O)NC2=O)cc1)c1nc2ccccc2s1 [Example 2, 5-(4-[2-(N-Methyl-N-(2-benzothiazolyl)amino)ethoxy]benzylidene)-2,4-thiazolidinedione] | – | inhibition in vivo at 300 µmol/kg [1, 3]: 30%
4 | – | CN(CCOc1ccc(/C=C2\SC(=O)NC2=O)cc1)c1nc2ccccc2o1 [Example 4, 5-(4-[2-(N-Methyl-N-(2-benzoxazolyl)amino)ethoxy]benzylidene)-2,4-thiazolidinedione] | – | inhibition in vivo at 300 µmol/kg [1, 3]: 30%
5 | – | CN(CCOc1ccc(CC2SC(=O)NC2=O)cc1)c1ncccn1 (centres unmarked) [Example 5, 5-(4-[2-(N-Methyl-N-(2-pyrimidinyl)amino)ethoxy]benzyl)-2,4-thiazolidinedione] | 40% | –
6 | – | Cc1nc(N(C)CCOc2ccc(CC3SC(=O)NC3=O)cc2)sc1C (centres unmarked) [Example 7] | – | inhibition in vivo at 50 µmol/kg ([1]; Mus musculus, 192 h, level in diet 50 μmol kg^-1 of diet, read-out: % REDUCTION IN AREA UNDER BLOOD GLUCOSE CURVE): 47%
7 | 175 °C | Cc1nc(N(C)CCOc2ccc(/C=C3\SC(=O)NC3=O)cc2)sc1C [Example 8, 5-(4-[2-(N-Methyl-N-[2-(4,5-dimethylthiazolyl)]amino)ethoxy]benzylidene)-2,4-thiazolidinedione] | – | –
8 | 186 °C | CN(CCOc1ccc(CC2SC(=O)NC2=O)cc1)c1nccs1 (centres unmarked) [Example 9, 5-(4-[2-(N-Methyl-N-(2-thiazolyl)amino)ethoxy]benzyl)-2,4-thiazolidinedione] | 58% | –
9 | 62 to 65 °C | CN(CCOc1ccc(CC2SC(=O)NC2=O)cc1)c1nc(-c2ccccc2)cs1 (centres unmarked) [Example 11, 5-[4-(2-(N-Methyl-N-(2-(4-phenylthiazolyl))amino)ethoxy)benzyl]-2,4-thiazolidinedione] | 34% | –
10 | 134 °C | CN(CCOc1ccc(/C=C2\SC(=O)NC2=O)cc1)c1nc(-c2ccccc2)cs1 [Example 12, 5-(4-[2-(N-Methyl-N-(2-(4-phenylthiazolyl))amino)ethoxy]benzylidene)-2,4-thiazolidinedione] | – | –
11 | 60 to 62 °C | Cc1sc(N(C)CCOc2ccc(CC3SC(=O)NC3=O)cc2)nc1-c1ccccc1 (centres unmarked) [Example 13, 5-(4-[2-(N-Methyl-N-[2-(4-phenyl-5-methylthiazolyl)]amino)ethoxy]benzyl)-2,4-thiazolidinedione] | 37% | –
12 | 174 °C | Cc1nc(N(C)CCOc2ccc(CC3SC(=O)NC3=O)cc2)sc1-c1ccccc1 (centres unmarked) [Example 15, 5-(4-[2-(N-Methyl-N-[2-(4-methyl-5-phenylthiazolyl)]amino)ethoxy]benzyl)-2,4-thiazolidinedione] | 39% | –
13 | – | Cc1csc(N(C)CCOc2ccc(CC3SC(=O)NC3=O)cc2)n1 (centres unmarked) [Example 17, 5-(4-[2-(N-Methyl-N-[2-(4-methylthiazolyl)]amino)ethoxy]benzyl)-2,4-thiazolidinedione] | 34% | –
14 | 200 °C | CN(CCOc1ccc(CC2SC(=O)NC2=O)cc1)c1ncc(-c2ccccc2)o1 (centres unmarked) [Example 19, 5-[4-(2-(N-Methyl-N-[2-(5-phenyloxazolyl)]amino)ethoxy)benzyl]-2,4-thiazolidinedione] | – | inhibition in vivo at 30 µmol/kg [1, 3]: 22%
15 | 191 °C | CN(CCOc1ccc(/C=C2\SC(=O)NC2=O)cc1)c1ncc(-c2ccccc2)o1 [Example 20, 5-(4-[2-(N-Methyl-N-[2-(5-phenyloxazolyl)]amino)ethoxy]benzylidene)-2,4-thiazolidinedione] | – | –
16 | – | Cc1nc(N(C)CCOc2ccc(CC3SC(=O)NC3=O)cc2)oc1C (centres unmarked) [Example 21, 5-(4-[2-(N-Methyl-N-[2-(4,5-dimethyloxazolyl)]amino)ethoxy]benzyl)-2,4-thiazolidinedione] | – | inhibition in vivo at 30 µmol/kg [1, 3]: 33%
17 | 234 °C | O=C1NC(=O)/C(=C/c2ccc(OCCNc3ncccn3)cc2)S1 [Example 24, 5-[4-(2-(2-Pyrimidinylamino)ethoxy)benzylidene]-2,4-thiazolidinedione] | – | inhibition in vivo at 30 µmol/kg [1, 3]: 15%
18 | – | CC(=O)N(CCOc1ccc(CC2SC(=O)NC2=O)cc1)c1ncccn1 (centres unmarked) [Example 25, 5-(4-[2-(N-Acetyl-N-(2-pyrimidinyl)amino)ethoxy]benzyl)-2,4-thiazolidinedione] | – | inhibition in vivo at 30 µmol/kg [1, 3]: 19%
19 | – | O=C1NC(=O)C(Cc2ccc(OCCN(Cc3ccccc3)c3nc4ccccc4s3)cc2)S1 (centres unmarked) [Example 27, 5-(4-(2-(N-(2-Benzothiazolyl)-N-benzylamino)ethoxy)benzyl)-2,4-thiazolidinedione] | – | inhibition in vivo at 300 µmol/kg [1, 3]: 56%
20 | 202 to 204 °C | CN(CCCOc1ccc(/C=C2\SC(=O)NC2=O)cc1)c1nc2ccccc2o1 [Example 29, 5-(4-[3-(N-Methyl-N-(2-benzoxazolyl)amino)propoxy]benzylidene)-2,4-thiazolidinedione] | – | inhibition in vivo at 300 µmol/kg [1, 3]: 32%
21 | 177 to 179 °C | CN(CCOc1ccc(/C=C2\SC(=O)NC2=O)cc1)c1ccccn1 [Example 31, 5-(4-[2-(N-Methyl-N-(2-pyridyl)amino)ethoxy]benzylidene)-2,4-thiazolidinedione] | – | –
22 | 202 to 203 °C | O=C1NC(=O)C(Cc2ccc(OCCNc3nc4ccccc4o3)cc2)S1 (centres unmarked) [Example 35, 5-(4-[2-(N-(2-Benzoxazolyl)amino)ethoxy]benzyl)-2,4-thiazolidinedione] | 44% | –
23 | – | CC(C)N(CCOc1ccc(CC2SC(=O)NC2=O)cc1)c1nc2ccccc2o1 (centres unmarked) [Example 36, 5-(4-[2-(N-Isopropyl-N-(2-benzoxazolyl)amino)ethoxy]benzyl)-2,4-thiazolidinedione] | 20% | –

Row | Compound | melting point | inhibition in vivo at 100 µmol/kg [1, 3] | further results
24 | CN(CCCCOc1ccc(/C=C2\SC(=O)NC2=O)cc1)c1nc2ccccc2o1 [Example 32, 5-(4-[4-(N-Methyl-N-(2-benzoxazolyl)amino)butoxy]benzylidene)-2 4-thiazolidinedione] | 168 °C | – | –
25 | CN(CCCCOc1ccc(CC2SC(=O)NC2=O)cc1)c1nc2ccccc2o1 (centres unmarked) [Example 33, 5-(4-[4-(N-Methyl-N-(2-benzoxazolyl)amino)butoxy]benzyl)-2,4-thiazolidinedione] | 112 °C | – | inhibition in vivo at 300 µmol/kg [1, 3]: 25%
